These compounds were tested on H82 cells (assay: cells). Conditions: Homo sapiens, NCI-H82; H82 cells, 4000 cells/well, CellTiter-Glo; read-out: IC50 in H82 Cells.
Assay type: cell-based
How it was run: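 H82 cells in RPMI1640 + 10% FBS exposed to compound (0.1% DMSO final) for 6 days at 37 °C, 5% CO2. Viability read by CellTiter-Glo ATP luminescence, normalised to DMSO and medium controls; IC50 from nonlinear regression of the dose–survival curve.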
Work on CN1CCN(c2ccc(N3CCC(=O)NC3=O)cn2)CC1C(=O)N1CCN(c2ccc(Nc3ncc4c(n3)-c3ccc(Cl)cc3C(c3c(F)cccc3F)=NC4)cc2)CC1 (stereo not drawn) [Compound A309] yielded an IC50 of less than 1000 nM. O=C1CCN(c2ccc(N3CCC4(CC3)CC(N3CCN(c5ccc(Nc6ncc7c(n6)-c6ccc(Cl)cc6C(c6c(F)cccc6F)=NC7)cc5)C(=O)C3)CO4)nc2)C(=O)N1 (stereo not drawn) [Compound A336] gave an IC50 of less than 1000 nM. O=C1CCN(c2ccc(N3CCC(N4CCN(C56CC(Nc7ncc8c(n7)-c7ccc(Cl)cc7C(c7c(F)cccc7F)=NC8)(C5)C6)CC4)CC3)nc2)C(=O)N1 [Compound A216] gave an IC50 of less than 1000 nM. Cc1c(N2CCC(CN3CCc4ccc(Nc5ncc6c(n5)-c5ccc(Cl)cc5C(c5c(F)cccc5F)=NC6)cc4C3)CC2)cccc1N1CCC(=O)NC1=O [Compound A178] was tested, and the IC50 was less than 1000 nM. O=C1CCN(c2ccc(N3CCC4(CC3)CC(N3CCC(c5ccc(Nc6ncc7c(n6)-c6ccc(Cl)cc6C(c6c(F)cccc6F)=NC7)cc5)C(F)(F)C3)CO4)nc2)C(=O)N1 (stereo not drawn) [Compound A351] was tested, and the IC50 was less than 1000 nM. With O=C1CCN(c2ccc(N3CCC(N4CCN(c5ccc(Nc6ncc7c(n6)-c6ccc(Cl)cc6C(c6c(F)cccc6F)=NC7)cc5)C(=O)C4)C3)nc2)C(=O)N1 (stereo not drawn) [Compound A166] the IC50 was less than 1000 nM. With O=C1CCN(c2ccc(N3CCC4(CC3)CC(N3CCN(C56CC(Nc7ncc8c(n7)-c7ccc(Cl)cc7C(c7nccs7)=NC8)(C5)C6)C(=O)C3)CO4)nc2)C(=O)N1 (stereo not drawn) [Compound A339] the IC50 was less than 1000 nM. N#Cc1ccc2c(c1)C(c1nccs1)=NCc1cnc(Nc3ccc(N4CCN(C5CCN(c6ccc(N7CCC(=O)NC7=O)cn6)CC5)CC4=O)cc3)nc1-2 [Compound A322] gave an IC50 of less than 1000 nM. In the case of O=C1CCN(c2ccc(N3CC(N4CCN(C(=O)C56CC(Nc7ncc8c(n7)-c7ccc(Cl)cc7C(c7c(F)cccc7F)=NC8)(C5)C6)CC4)C3)nc2)C(=O)N1 [Compound A275], the IC50 is reported as less than 1000 nM. O=C1CCN(c2ccc(N3CCC4(CC3)CC(N3CCN(C56CC(Nc7ncc8c(n7)-c7ccc(Cl)cc7C(c7c(F)cccc7F)=NC8)(C5)C6)CC3)CO4)nc2)C(=O)N1 (stereo not drawn) [Compound A361] was tested, and the IC50 was less than 1000 nM. With O=C1CCN(c2ccc(N3CCC4(CC3)CC(N3CCN(c5ccc(Nc6ncc7c(n6)-c6ccc(Cl)cc6C(c6nccs6)=NC7)cc5)C(=O)C3)CO4)nc2)C(=O)N1 (stereo not drawn) [Compound A337] the IC50 was less than 1000 nM. Compound O=C1CCN(c2ccc(N3CC(C4CCN(C(=O)C56CC(Nc7ncc8c(n7)-c7ccc(Cl)cc7C(c7c(F)cccc7F)=NC8)(C5)C6)CC4)C3)nc2)C(=O)N1 [Compound A297] has an IC50 of less than 1000 nM.

What follows are compounds tested against T1, AURKA (Homo sapiens, UniProt O14965) (assay: not given). Conditions: 100 nM compound, Jurkat cells, 24 h, Table 2.
T1 construct: endogenous in cells; host or cells: Jurkat cells
T1 sequence (O14965 1-403): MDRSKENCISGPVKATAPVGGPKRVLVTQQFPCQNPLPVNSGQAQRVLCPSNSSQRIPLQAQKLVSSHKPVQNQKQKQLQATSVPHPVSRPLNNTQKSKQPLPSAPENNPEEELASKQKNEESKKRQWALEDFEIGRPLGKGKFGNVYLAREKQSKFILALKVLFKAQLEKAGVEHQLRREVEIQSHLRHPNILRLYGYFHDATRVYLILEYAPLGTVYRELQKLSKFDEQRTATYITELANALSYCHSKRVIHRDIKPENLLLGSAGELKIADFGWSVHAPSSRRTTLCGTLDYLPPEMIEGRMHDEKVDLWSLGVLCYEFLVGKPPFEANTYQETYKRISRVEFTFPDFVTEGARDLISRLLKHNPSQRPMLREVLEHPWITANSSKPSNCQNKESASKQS
Assay type: cell-based
How it was run: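 Jurkat cells seeded at 1×10^6 cells/500 µL and treated with compound; lysates run on SDS-PAGE, blotted to nitrocellulose and probed overnight at 4°C for AURKA. Chemiluminescent or fluorescent band intensity fitted to a curve to give DC50 for protein degradation.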
CN1CCN(c2ccc(N3CCC(=O)NC3=O)cn2)CC1C(=O)N1CCN(c2ccc(Nc3ncc4c(n3)-c3ccc(Cl)cc3C(c3c(F)cccc3F)=NC4)cc2)CC1 (stereo not drawn) [Compound A309] was tested, and the “Percentage of AURKA Degradation Induced by 100 nM Compound in Jurkat Cells” value (“Percentage … by 100 nM Compound in Jurkat Cells” below) was “++ (30% < Degradation ≤ 70%)”. With O=C1CCN(c2ccc(N3CCC4(CC3)CC(N3CCN(c5ccc(Nc6ncc7c(n6)-c6ccc(Cl)cc6C(c6c(F)cccc6F)=NC7)cc5)C(=O)C3)CO4)nc2)C(=O)N1 (stereo not drawn) [Compound A336] the “Percentage … by 100 nM Compound in Jurkat Cells” value was “+++ (Degradation > 70%)”. O=C1CCN(c2ccc(N3CCC(N4CCN(C56CC(Nc7ncc8c(n7)-c7ccc(Cl)cc7C(c7c(F)cccc7F)=NC8)(C5)C6)CC4)CC3)nc2)C(=O)N1 [Compound A216] was tested, and the “Percentage … by 100 nM Compound in Jurkat Cells” value was “++ (30% < Degradation ≤ 70%)”. In the case of Cc1c(N2CCC(CN3CCc4ccc(Nc5ncc6c(n5)-c5ccc(Cl)cc5C(c5c(F)cccc5F)=NC6)cc4C3)CC2)cccc1N1CCC(=O)NC1=O [Compound A178], the “Percentage … by 100 nM Compound in Jurkat Cells” value is reported as “+++ (Degradation > 70%)”. In the case of O=C1CCN(c2ccc(N3CCC4(CC3)CC(N3CCC(c5ccc(Nc6ncc7c(n6)-c6ccc(Cl)cc6C(c6c(F)cccc6F)=NC7)cc5)C(F)(F)C3)CO4)nc2)C(=O)N1 (stereo not drawn) [Compound A351], the “Percentage … by 100 nM Compound in Jurkat Cells” value is reported as “+++ (Degradation > 70%)”. With O=C1CCN(c2ccc(N3CCC(N4CCN(c5ccc(Nc6ncc7c(n6)-c6ccc(Cl)cc6C(c6c(F)cccc6F)=NC7)cc5)C(=O)C4)C3)nc2)C(=O)N1 (stereo not drawn) [Compound A166] the “Percentage … by 100 nM Compound in Jurkat Cells” value was “+++ (Degradation > 70%)”. O=C1CCN(c2ccc(N3CCC4(CC3)CC(N3CCN(C56CC(Nc7ncc8c(n7)-c7ccc(Cl)cc7C(c7nccs7)=NC8)(C5)C6)C(=O)C3)CO4)nc2)C(=O)N1 (stereo not drawn) [Compound A339] was tested, and the “Percentage … by 100 nM Compound in Jurkat Cells” value was “+++ (Degradation > 70%)”. With N#Cc1ccc2c(c1)C(c1nccs1)=NCc1cnc(Nc3ccc(N4CCN(C5CCN(c6ccc(N7CCC(=O)NC7=O)cn6)CC5)CC4=O)cc3)nc1-2 [Compound A322] the “Percentage … by 100 nM Compound in Jurkat Cells” value was “+++ (Degradation > 70%)”. In the case of O=C1CCN(c2ccc(N3CC(N4CCN(C(=O)C56CC(Nc7ncc8c(n7)-c7ccc(Cl)cc7C(c7c(F)cccc7F)=NC8)(C5)C6)CC4)C3)nc2)C(=O)N1 [Compound A275], the “Percentage … by 100 nM Compound in Jurkat Cells” value is reported as “+++ (Degradation > 70%)”. In the case of O=C1CCN(c2ccc(N3CCC4(CC3)CC(N3CCN(C56CC(Nc7ncc8c(n7)-c7ccc(Cl)cc7C(c7c(F)cccc7F)=NC8)(C5)C6)CC3)CO4)nc2)C(=O)N1 (stereo not drawn) [Compound A361], the “Percentage … by 100 nM Compound in Jurkat Cells” value is reported as “+++ (Degradation > 70%)”. For O=C1CCN(c2ccc(N3CCC4(CC3)CC(N3CCN(c5ccc(Nc6ncc7c(n6)-c6ccc(Cl)cc6C(c6nccs6)=NC7)cc5)C(=O)C3)CO4)nc2)C(=O)N1 (stereo not drawn) [Compound A337], the “Percentage … by 100 nM Compound in Jurkat Cells” value was “+++ (Degradation > 70%)”. O=C1CCN(c2ccc(N3CC(C4CCN(C(=O)C56CC(Nc7ncc8c(n7)-c7ccc(Cl)cc7C(c7c(F)cccc7F)=NC8)(C5)C6)CC4)C3)nc2)C(=O)N1 [Compound A297] was tested, and the “Percentage … by 100 nM Compound in Jurkat Cells” value was “+++ (Degradation > 70%)”.

Same assay, conditions: 1 µM compound, Jurkat cells, 24 h, Table 2
For CN1CCN(c2ccc(N3CCC(=O)NC3=O)cn2)CC1C(=O)N1CCN(c2ccc(Nc3ncc4c(n3)-c3ccc(Cl)cc3C(c3c(F)cccc3F)=NC4)cc2)CC1 (stereo not drawn) [Compound A309], the “Percentage of AURKA Degradation Induced by 1 µM Compound in Jurkat Cells” value (“Percentage … by 1 µM Compound in Jurkat Cells” for short) was “++ (30% < Degradation ≤ 70%)”. For O=C1CCN(c2ccc(N3CCC4(CC3)CC(N3CCN(c5ccc(Nc6ncc7c(n6)-c6ccc(Cl)cc6C(c6c(F)cccc6F)=NC7)cc5)C(=O)C3)CO4)nc2)C(=O)N1 (stereo not drawn) [Compound A336], the “Percentage … by 1 µM Compound in Jurkat Cells” value was “+++ (Degradation > 70%)”. For O=C1CCN(c2ccc(N3CCC(N4CCN(C56CC(Nc7ncc8c(n7)-c7ccc(Cl)cc7C(c7c(F)cccc7F)=NC8)(C5)C6)CC4)CC3)nc2)C(=O)N1 [Compound A216], the “Percentage … by 1 µM Compound in Jurkat Cells” value was “++ (30% < Degradation ≤ 70%)”. With Cc1c(N2CCC(CN3CCc4ccc(Nc5ncc6c(n5)-c5ccc(Cl)cc5C(c5c(F)cccc5F)=NC6)cc4C3)CC2)cccc1N1CCC(=O)NC1=O [Compound A178] the “Percentage … by 1 µM Compound in Jurkat Cells” value was “+++ (Degradation > 70%)”. With O=C1CCN(c2ccc(N3CCC4(CC3)CC(N3CCC(c5ccc(Nc6ncc7c(n6)-c6ccc(Cl)cc6C(c6c(F)cccc6F)=NC7)cc5)C(F)(F)C3)CO4)nc2)C(=O)N1 (stereo not drawn) [Compound A351] the “Percentage … by 1 µM Compound in Jurkat Cells” value was “+++ (Degradation > 70%)”. In the case of O=C1CCN(c2ccc(N3CCC(N4CCN(c5ccc(Nc6ncc7c(n6)-c6ccc(Cl)cc6C(c6c(F)cccc6F)=NC7)cc5)C(=O)C4)C3)nc2)C(=O)N1 (stereo not drawn) [Compound A166], the “Percentage … by 1 µM Compound in Jurkat Cells” value is reported as “++ (30% < Degradation ≤ 70%)”. In the case of O=C1CCN(c2ccc(N3CCC4(CC3)CC(N3CCN(C56CC(Nc7ncc8c(n7)-c7ccc(Cl)cc7C(c7nccs7)=NC8)(C5)C6)C(=O)C3)CO4)nc2)C(=O)N1 (stereo not drawn) [Compound A339], the “Percentage … by 1 µM Compound in Jurkat Cells” value is reported as “+++ (Degradation > 70%)”. For N#Cc1ccc2c(c1)C(c1nccs1)=NCc1cnc(Nc3ccc(N4CCN(C5CCN(c6ccc(N7CCC(=O)NC7=O)cn6)CC5)CC4=O)cc3)nc1-2 [Compound A322], the “Percentage … by 1 µM Compound in Jurkat Cells” value was “+++ (Degradation > 70%)”. O=C1CCN(c2ccc(N3CC(N4CCN(C(=O)C56CC(Nc7ncc8c(n7)-c7ccc(Cl)cc7C(c7c(F)cccc7F)=NC8)(C5)C6)CC4)C3)nc2)C(=O)N1 [Compound A275] was tested, and the “Percentage … by 1 µM Compound in Jurkat Cells” value was “+++ (Degradation > 70%)”. O=C1CCN(c2ccc(N3CCC4(CC3)CC(N3CCN(C56CC(Nc7ncc8c(n7)-c7ccc(Cl)cc7C(c7c(F)cccc7F)=NC8)(C5)C6)CC3)CO4)nc2)C(=O)N1 (stereo not drawn) [Compound A361] was tested, and the “Percentage … by 1 µM Compound in Jurkat Cells” value was “+++ (Degradation > 70%)”. For O=C1CCN(c2ccc(N3CCC4(CC3)CC(N3CCN(c5ccc(Nc6ncc7c(n6)-c6ccc(Cl)cc6C(c6nccs6)=NC7)cc5)C(=O)C3)CO4)nc2)C(=O)N1 (stereo not drawn) [Compound A337], the “Percentage … by 1 µM Compound in Jurkat Cells” value was “+++ (Degradation > 70%)”. For O=C1CCN(c2ccc(N3CC(C4CCN(C(=O)C56CC(Nc7ncc8c(n7)-c7ccc(Cl)cc7C(c7c(F)cccc7F)=NC8)(C5)C6)CC4)C3)nc2)C(=O)N1 [Compound A297], the “Percentage … by 1 µM Compound in Jurkat Cells” value was “+++ (Degradation > 70%)”.
